According to ChEMBL document CHEMBL1151353, “Normaytansine, a new antileukemic ansa macrolide from Maytenus buchananii” (1980):
Values after ≈ are worked out from the molar mass of the structure shown.

Legend:
KB = assay: Cytotoxicity against human KB cells; assay type: functional; settings: read-out: ED50 (the source's name)
P388 = assay: In vivo antitumor activity against mouse P388 cells in mouse at 100 mg/kg relative to control; assay type: functional

**Q.** What does the source list for `COc1cc2cc(c1Cl)NC(=O)C[C@H](OC(=O)[C@H](C)N(C)C(C)=O)[C@]1(C)O[C@H]1[C@H](C)[C@@H]1C[C@@](O)(NC(=O)O1)[C@H](OC)/C=C/C=C(\C)C2` [NORMAYTANSINE]?
**A.** EC50 (KB): 1 ng/mL (≈ 1.47 nM); T/C (P388): 181%
